EC50 data for 28 molecules are collected here from US20220056043A1, “NITROGEN-CONTAINING FUSED CYCLIC COMPOUND, PREPARATION METHOD THEREFOR AND USE THEREOF” (SICHUAN KELUN-BIOTECH BIOPHARMACEUTICAL CO., LTD., priority 2019, published 2022).

For experiment [1], the system named is THP1-defNLRP3 cells. The experiment can be described thus: Agonistic effect on the expression of IL-1β in NLRP3 deficient THP1 cells (THP1-defNLRP3) after PMA-induced differentiation (HTRF). Type of experiment: cell-based, human. The note with it: IL-1β level, PMA-differentiated NLRP3 deficient THP1 cells, 6 hours, highest test concentration 30 μM, read-out: hNLRP3 EC50 (μM) (THP-1defNLRP3). The gist of the method: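 PMA-differentiated (1 μM, 24 h) NLRP3-deficient THP1 macrophages, 1×10^5 cells/well in RPMI 1640 with 2% heat-inactivated FBS, treated with compound for 6 h at 37 °C. Supernatant IL-1β measured by HTRF. EC50 from four-parameter variable-slope fit.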
Background: In TR-FRET formats the signal depends on donor and acceptor labels being close together.

Experiment [2] addresses T1, hTLR7 (Homo sapiens, UniProt Q9NYK1).
T1 construct: host or cells: HEK-hTLR7-NF-κB-Luciferase cells
T1 sequence (Q9NYK1 27-1049): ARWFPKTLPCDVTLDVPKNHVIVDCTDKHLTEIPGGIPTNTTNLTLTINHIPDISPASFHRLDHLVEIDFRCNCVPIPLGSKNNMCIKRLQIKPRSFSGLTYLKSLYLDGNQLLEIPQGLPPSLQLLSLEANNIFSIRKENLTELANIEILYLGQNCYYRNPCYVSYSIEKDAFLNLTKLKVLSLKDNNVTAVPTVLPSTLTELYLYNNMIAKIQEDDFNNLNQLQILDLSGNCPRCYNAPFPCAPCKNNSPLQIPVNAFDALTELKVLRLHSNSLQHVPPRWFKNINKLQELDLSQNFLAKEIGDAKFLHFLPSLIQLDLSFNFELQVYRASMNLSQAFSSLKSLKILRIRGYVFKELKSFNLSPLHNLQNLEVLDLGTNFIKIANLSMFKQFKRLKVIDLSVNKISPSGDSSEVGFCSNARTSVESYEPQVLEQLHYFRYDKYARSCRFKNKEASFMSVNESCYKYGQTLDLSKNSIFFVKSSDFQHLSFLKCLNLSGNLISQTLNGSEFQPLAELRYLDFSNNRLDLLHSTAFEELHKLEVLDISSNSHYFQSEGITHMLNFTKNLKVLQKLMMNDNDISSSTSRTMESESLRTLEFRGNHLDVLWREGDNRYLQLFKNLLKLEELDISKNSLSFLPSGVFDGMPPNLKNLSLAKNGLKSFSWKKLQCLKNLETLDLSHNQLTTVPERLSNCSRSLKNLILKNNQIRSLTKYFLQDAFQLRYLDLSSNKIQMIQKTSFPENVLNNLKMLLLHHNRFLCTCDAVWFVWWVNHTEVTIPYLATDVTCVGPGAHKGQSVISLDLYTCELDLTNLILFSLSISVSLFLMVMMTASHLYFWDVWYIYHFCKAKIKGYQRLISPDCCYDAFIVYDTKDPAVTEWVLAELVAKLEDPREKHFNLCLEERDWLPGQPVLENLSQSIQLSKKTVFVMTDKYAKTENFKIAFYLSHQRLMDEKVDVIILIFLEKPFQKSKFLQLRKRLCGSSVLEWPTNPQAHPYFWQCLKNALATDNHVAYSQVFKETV
The experiment in a line: Agonistic effect on hTLR7, HEK-hTLR7-NF-κB-Luciferase reporter cells. Type of experiment: cell-based. To be noted: 16 hours. A digest of the protocol:
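HEK cells carrying human TLR7 and NF-κB-luciferase reporter, […] in DMEM with 10% FBS, exposed to compound for 16 h at 37 °C, 5% CO2; serves as specificity counterscreen to NLRP3 activity. Luminescence (RLU) after 5 min with luciferase reagent; EC50 by four-parameter variable-slope fit.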
On the technique in general: A reporter such as luciferase makes a cellular process visible.

For orientation: EC50 means the concentration that produces a half-maximal response.

Molecules are shown by their SMILES. Like-named read-outs stand apart in the source and are kept apart here.

As to `CC(C)(O)CNc1cc(N)nc2cc(-c3ccn[nH]3)sc12` [Compound 28, (1-(5-amino-2-(1H-pyrazol-5-yl)thieno[3,2-b]pyridin-7-yl)amino)-2-methyl-2-propanol], the EC50 in experiment [1] (Homo sapiens, THP-1) is > 30 µM; in experiment [2], > 100 µM.
On to `C[C@@H](O)CNc1cc(N)nc2cc(-c3ccn[nH]3)sc12` [Compound 29], for which the EC50 in experiment [1] (Homo sapiens, THP-1) is > 30 µM; in experiment [2], > 100 µM.
For the molecule `Nc1cc(N[C@@H]2CC[C@@H](O)C2)c2sc(-c3ccn[nH]3)cc2n1` [Compound 30, (1R,3R)-3-((5-amino-2-(1H-pyrazol-5-yl)thieno[3,2-b]pyridin-7-yl)amino)cyclopentanol], the EC50 is > 30 µM in experiment [1] and > 100 µM in experiment [2].
With `Nc1cc(NC(CCO)c2ccccc2)c2sc(-c3ccn[nH]3)cc2n1` (centres unmarked) [Compound 123, 3-((5-amino-2-(1H-pyrazol-5-yl)thieno[3,2-b]pyridin-7-yl)amino)-3-phenyl-1-propanol], the EC50 in experiment [1] (Homo sapiens, THP-1) was > 30 µM; in experiment [2] it was > 100 µM.
Consider `Nc1cc(NCC2CCC2)c2sc(-c3ccn[nH]3)cc2n1` [Compound 126, N^7-(cyclobutylmethyl)-2-(1H-pyrazol-5-yl)thieno[3,2-b]pyridine-5,7-diamine], for which the EC50 in experiment [1] (Homo sapiens, THP-1) was > 30 µM; in experiment [2] it was > 100 µM.
For `CN(CCCO)c1cc(N)nc2cc(-c3ccn[nH]3)sc12` [Compound 127, 3-((5-amino-2-(1H-pyrazol-5-yl)thieno[3,2-b]pyridin-7-yl)(methyl)amino)-1-propanol] the same measures were > 30 µM and > 100 µM.
On to `C[C@H]1CC[C@H](Nc2cc(N)nc3cc(-c4ccn[nH]4)sc23)CC1` [Compound 128, N^7-((1R,4R)-4-methylcyclohexyl)-2-(1H-pyrazol-5-yl)thieno[3,2-b]pyridine-5,7-diamine], for which the EC50 was > 30 µM in experiment [1] (Homo sapiens, THP-1) and > 100 µM in experiment [2].
In the case of `C[C@]1(O)C[C@@H](Nc2cc(N)nc3cc(-c4ccn[nH]4)sc23)C1` [Compound 129, (1s,3s)-3-((5-amino-2-(1H-pyrazol-5-yl)thieno[3,2-b]pyridin-7-yl)amino)-1-methylcyclobutanol], the EC50 was > 30 µM in experiment [1] (Homo sapiens, THP-1) and > 100 µM in experiment [2].
For the molecule `C[C@H](Nc1cc(N)nc2cc(-c3ccn[nH]3)sc12)c1cccc(C(F)(F)F)c1` [Compound 131, (S)-2-(1H-pyrazol-5-yl)-N^7-(1-(3-(trifluoromethyl)phenyl)ethyl)thieno[3,2-b]pyridine-5,7-diamine], the EC50 was > 30 µM in experiment [1] (Homo sapiens, THP-1) and > 100 µM in experiment [2].
The matching figures for `CC[C@@H](CO)Nc1cc(N)nc2cc(-c3ccn[nH]3)sc12` [Compound 132, (S)-2-((5-amino-2-(1H-pyrazol-5-yl)thieno[3,2-b]pyridin-7-yl)amino)-1-butanol]: > 30 µM and > 100 µM.
With `COC[C@@H](C)Nc1cc(N)nc2cc(-c3ccn[nH]3)sc12` [Compound 133, (R)—N^7-(1-methoxyprop-2-yl)-2-(1H-pyrazol-5-yl)thieno[3,2-b]pyridine-5,7-diamine], the EC50 is > 30 µM in experiment [1] (Homo sapiens, THP-1) and > 100 µM in experiment [2].
`Cc1cccnc1CNc1cc(N)nc2cc(-c3ccn[nH]3)sc12` [Compound 134, N^7-((3-methylpyridin-2-yl)methyl)-2-(1H-pyrazol-5-yl)thieno[3,2-b]pyridine-5,7-diamine]: the EC50 in experiment [1] (Homo sapiens, THP-1) was > 30 µM; in experiment [2], > 100 µM.
`Nc1cc(NCCN2CCCC2=O)c2sc(-c3ccn[nH]3)cc2n1` [Compound 135, 1-(2-((5-amino-2-(1H-pyrazol-5-yl)thieno[3,2-b]pyridin-7-yl)amino)ethyl)pyrrolidin-2-one]: the EC50 was > 30 µM in experiment [1] (Homo sapiens, THP-1) and > 100 µM in experiment [2].
For `Nc1cc(NCC(CO)CO)c2sc(-c3ccn[nH]3)cc2n1` [Compound 136] the same measures were > 30 µM and > 100 µM.
Take `CNC(=O)CNc1cc(N)nc2cc(-c3ccn[nH]3)sc12` [Compound 137, 2-((5-amino-2-(1H-pyrazol-5-yl)thieno[3,2-b]pyridin-7-yl)amino)-N-methylacetamide]: the EC50 is > 30 µM in experiment [1] (Homo sapiens, THP-1) and > 100 µM in experiment [2].
The matching figures for `Nc1cc(NCC(=O)NC2CC2)c2sc(-c3ccn[nH]3)cc2n1` [Compound 138, 2-((5-amino-2-(1H-pyrazol-5-yl)thieno[3,2-b]pyridin-7-yl)amino)-N-cyclopropylacetamide]: > 30 µM and > 100 µM.
Consider `CN(CCO)c1cc(N)nc2cc(-c3ccn[nH]3)sc12` [Compound 139, 2-((5-amino-2-(1H-pyrazol-5-yl)thieno[3,2-b]pyridin-7-yl)(methyl)amino)ethanol], for which the EC50 was > 30 µM in experiment [1] (Homo sapiens, THP-1) and > 100 µM in experiment [2].
Regarding `CCN(CCNc1cc(N)nc2cc(-c3ccn[nH]3)sc12)C(=O)Cc1cccc(C)c1` [Compound 140, N-(2-((5-amino-2-(1H-pyrazol-5-yl)thieno[3,2-b]pyridin-7-yl)amino)ethyl)-N-ethyl-2-(m-tolyl)acetamide], the EC50 in experiment [1] (Homo sapiens, THP-1) is > 30 µM; in experiment [2], > 100 µM.
Take `CC(C)CNc1cc(N)nc2cc(-c3ccn[nH]3)sc12` [Compound 141, N^7-isobutyl-2-(1H-pyrazol-5-yl)thieno[3,2-b]pyridin-5,7-diamine]: the EC50 was > 30 µM in experiment [1] (Homo sapiens, THP-1) and > 100 µM in experiment [2].
The matching figures for `Nc1cc(N[C@H]2[C@@H]3CNC[C@@H]32)c2sc(-c3ccn[nH]3)cc2n1` [Compound 142, N^7-((1R,5S,6S)-3-azabicyclo[3.1.0]hex-6-yl)-2-(1H-pyrazol-5-yl)thieno[3,2-b]pyridin-5,7-diamine]: > 30 µM and > 100 µM.
Take `Nc1cc(NC2CCC(F)(F)CC2)c2sc(-c3ccn[nH]3)cc2n1` [Compound 143, N^7-(4,4-difluorocyclohexyl)-2-(1H-pyrazol-5-yl)thieno[3,2-b]pyridin-5,7-diamine]: the EC50 in experiment [1] (Homo sapiens, THP-1) is > 30 µM; in experiment [2], > 100 µM.
For `CC(C)C[C@H](CO)Nc1cc(N)nc2cc(-c3ccn[nH]3)sc12` [Compound 144, (R)-2-((5-amino-2-(1H-pyrazol-5-yl)thieno[3,2-b]pyridin-7-yl)amino)-4-methyl-1-pentanol], the EC50 in experiment [1] (Homo sapiens, THP-1) is > 30 µM; in experiment [2], > 100 µM.
As for `CCC(=O)N(CC)CCNc1cc(N)nc2cc(-c3ccn[nH]3)sc12` [Compound 145, N-(2-((5-amino-2-(1H-pyrazol-5-yl)thieno[3,2-b]pyridin-7-yl)amino)ethyl)-N-ethylpropionamide], the EC50 in experiment [1] (Homo sapiens, THP-1) was > 30 µM; in experiment [2], > 100 µM.
Consider `CCN(CCNc1cc(N)nc2cc(-c3ccn[nH]3)sc12)C(=O)C1CC1` [Compound 146, N-(2-((5-amino-2-(1H-pyrazol-5-yl)thieno[3,2-b]pyridin-7-yl)amino)ethyl)-N-ethylcyclopropyl formamide], for which the EC50 is > 30 µM in experiment [1] (Homo sapiens, THP-1) and > 100 µM in experiment [2].
Take `Nc1cc(N[C@H]2CC[C@H](O)CC2)c2sc(-c3ccn[nH]3)cc2n1` [Compound 147, (1R,4R)-4-((5-amino-2-(1H-pyrazol-5-yl)thieno[3,2-b]pyridin-7-yl)amino)cyclohexanol]: the EC50 in experiment [1] (Homo sapiens, THP-1) is > 30 µM; in experiment [2], > 100 µM.
Take `C[C@@H]1CN(c2cc(N)nc3cc(-c4ccn[nH]4)sc23)C[C@@H](C)O1` [Compound 148, 7-((2R,6R)-2,6-dimethylmorpholino)-2-(1H-pyrazol-5-yl)thieno[3,2-b]pyridine-5-amine]: the EC50 is > 30 µM in experiment [1] (Homo sapiens, THP-1) and > 100 µM in experiment [2].
Take `Cc1noc(C)c1CNc1cc(N)nc2cc(-c3ccn[nH]3)sc12` [Compound 149, N^7-((3,5-dimethylisoxazol-4-yl)methyl)-2-(1H-pyrazol-5-yl)thieno[3,2-b]pyridine-5,7-diamine]: the EC50 in experiment [1] (Homo sapiens, THP-1) was > 30 µM; in experiment [2], > 100 µM.
For `Nc1cc(NCCCN2CCCC2=O)c2sc(-c3ccn[nH]3)cc2n1` [Compound 150], the EC50 is > 30 µM in experiment [1] (Homo sapiens, THP-1) and > 100 µM in experiment [2].
